Literature values, collected in patent US5321022A, “Compositions for percutaneous administration” (Kanebo, Ltd., priority 1989, dated 1994).

Details: cf: U.S. Pat. No. 4430343

CCOCCn1c(N2CCCN(C)CC2)nc2ccccc21 [emedastine, 1-(2-Ethoxyethyl)-2-(hexahydro-4-methyl-1H-1,4-diazepin-1-yl)-1H-benzimidazole]
antihistaminic activity (in words): strong antihistaminic activity
